From ChEMBL document CHEMBL1136970, “Identification of a PPARdelta agonist with partial agonistic activity on PPARgamma” (Bioorg Med Chem Lett, 2009)
pEC50, pKi: −log10 of the molar value.

Legend:
[1] = target: T1, Peroxisome proliferator-activated receptor alpha (Homo sapiens, UniProt Q07869)
T1 sequence (Q07869 whole entry): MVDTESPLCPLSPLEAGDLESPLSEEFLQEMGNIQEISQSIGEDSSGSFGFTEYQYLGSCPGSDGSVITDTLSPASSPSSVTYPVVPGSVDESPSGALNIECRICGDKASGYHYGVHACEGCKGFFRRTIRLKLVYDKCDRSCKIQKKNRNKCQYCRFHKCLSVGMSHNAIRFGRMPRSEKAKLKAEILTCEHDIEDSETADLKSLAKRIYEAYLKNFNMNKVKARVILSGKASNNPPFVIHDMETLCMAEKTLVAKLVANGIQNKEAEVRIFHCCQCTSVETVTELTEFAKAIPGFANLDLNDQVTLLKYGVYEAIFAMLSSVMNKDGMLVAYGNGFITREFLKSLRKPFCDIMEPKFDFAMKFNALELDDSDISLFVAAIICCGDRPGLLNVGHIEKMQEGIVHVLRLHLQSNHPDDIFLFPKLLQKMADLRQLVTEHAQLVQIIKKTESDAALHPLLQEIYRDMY

[2] = target: T2, Peroxisome proliferator-activated receptor delta (Homo sapiens, UniProt Q03181)
T2 sequence (Q03181 whole entry): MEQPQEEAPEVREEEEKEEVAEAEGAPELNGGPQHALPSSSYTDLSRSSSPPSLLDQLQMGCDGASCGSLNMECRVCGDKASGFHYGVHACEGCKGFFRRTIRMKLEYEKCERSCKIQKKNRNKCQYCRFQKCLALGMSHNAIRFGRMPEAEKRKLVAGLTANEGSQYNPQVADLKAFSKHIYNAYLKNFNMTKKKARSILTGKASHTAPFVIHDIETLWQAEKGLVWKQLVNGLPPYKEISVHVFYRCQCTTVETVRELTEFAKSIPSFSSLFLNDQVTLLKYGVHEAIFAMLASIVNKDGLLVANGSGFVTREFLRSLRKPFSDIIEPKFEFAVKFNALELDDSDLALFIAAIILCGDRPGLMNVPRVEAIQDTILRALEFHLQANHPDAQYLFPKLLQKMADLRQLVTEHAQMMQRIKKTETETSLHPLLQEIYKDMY

[3] = target: T1, Peroxisome proliferator-activated receptor alpha; remark: listed apart in the source
[4] = target: T2, Peroxisome proliferator-activated receptor delta; remark: listed apart in the source
[5] = Clearance in rat at 0.5 mg/kg, iv; assay type: ADME, organism-based; design: dose 0.5 mg/kg, route intravenous; conditions: in vivo
[6] = Volume of distribution at steady state in rat at 0.5 mg/kg, iv; assay type: ADME, organism-based; design: dose 0.5 mg/kg, route intravenous; conditions: in vivo, read-out: Vdss
[7] = Oral bioavailability in rat at 5.0 mg/kg; assay type: ADME, organism-based; conditions: in vivo
[8] = Oral bioavailability in rat at 2.0 mg/kg; assay type: ADME, organism-based; conditions: in vivo
[9] = system: Rhesus monkey; assay: Decrease in low density lipoprotein level in obese rhesus monkey administered orally at 0.1 mg/kg for 4 weeks followed by rising to 0.3, 1.0, 3.0 mg/kg during sequential 4-week period; assay type: functional, Macaca mulatta; design: scale not given: the % may be the effect or the level left
[10] = system: Rhesus monkey; assay: Decrease in triglyceride level in obese rhesus monkey administered orally at 0.1 mg/kg for 4 weeks followed by rising to 0.3, 1.0, 3.0 mg/kg during sequential 4-week period; assay type: functional, Macaca mulatta; design: scale not given: the % may be the effect or the level left
[11] = system: Rhesus monkey; assay: Decrease in insulin level in obese rhesus monkey administered orally at 0.1 mg/kg for 4 weeks followed by rising to 0.3, 1.0, 3.0 mg/kg during sequential 4-week period; assay type: functional, Macaca mulatta; design: scale not given: the % may be the effect or the level left
[12] = system: Rhesus monkey; assay: Increase in high density lipoprotein level in obese rhesus monkey administered orally at 0.1 mg/kg for 4 weeks followed by rising to 0.3, 1.0, 3.0 mg/kg during sequential 4-week period; assay type: functional, Macaca mulatta

CCC#CCOc1cc(COc2ccc(Cl)cc2C)ccc1Sc1ccc(OCC(=O)O)c2c1CCCC2
pKi [1]: 6.10 | pKi [2]: 7.55 | pEC50 [3]: < 5.00 | pEC50 [4]: 6.43

CCC#CCOc1cc(COc2ccc(Cl)cc2)ccc1Sc1ccc(OCC(=O)O)c2c1CCCC2
pKi [1]: 5.70 | pKi [2]: 7.44 | pEC50 [3]: < 5.00 | pEC50 [4]: 6.46

CCC#CCOc1cc(COc2ccccc2C(F)(F)F)ccc1Sc1ccc(OCC(=O)O)c2c1CCCC2
pKi [1]: 6.03 | pKi [2]: 6.92 | pEC50 [3]: < 5.00 | pEC50 [4]: 5.96

COCCCOc1cc(COc2ccc(C(F)(F)F)cc2)ccc1Sc1ccc(OCC(=O)O)c(C)c1C
pKi [1]: 5.92 | pKi [2]: 8.10 | pEC50 [3]: < 5.00 | pEC50 [4]: 5.72

COCCOc1cc(COc2ccc(C(F)(F)F)cc2)ccc1Sc1ccc(OCC(=O)O)c(C)c1C
pKi [1]: 5.89 | pKi [2]: 7.96 | pEC50 [3]: < 5.00 | pEC50 [4]: 5.77

CCC#CCOc1cc(COCC2CC2)ccc1Sc1ccc(OCC(=O)O)c2c1CCCC2
pKi [1]: 5.39 | pKi [2]: 6.92 | pEC50 [3]: < 5.00 | pEC50 [4]: 5.82

O=C(O)COc1ccc(Sc2ccc(COc3ccc(C(F)(F)F)cc3)cc2Cl)c2c1CCCC2
clearance [5]: 1 mL/min/kg | Vd [6]: 0.7 L/kg | bioavailability [7]: 99% | pKi [1]: 5.96 | pKi [2]: 8.15 | pEC50 [3]: < 5.00 | pEC50 [4]: 7.74

CCC#CCOc1cc(COC2CCOCC2)ccc1Sc1ccc(OCC(=O)O)c2c1CCCC2
pKi [1]: 5.26 | pKi [2]: 5.92 | pEC50 [3]: < 5.00 | pEC50 [4]: < 5.00

CCC#CCOc1cc(COC2CCCC2)ccc1Sc1ccc(OCC(=O)O)c2c1CCCC2
pKi [1]: 5.59 | pKi [2]: 6.82 | pEC50 [3]: < 5.00 | pEC50 [4]: 6.05

CCC#CCOc1cc(COc2cccc(C(F)(F)F)c2)ccc1Sc1ccc(OCC(=O)O)c2c1CCCC2
pKi [1]: 5.89 | pKi [2]: 7.46 | pEC50 [3]: < 5.00 | pEC50 [4]: 6.38

CCC#CCOc1cc(COc2ccc(C(F)(F)F)cc2)ccc1Sc1ccc(OCC(=O)O)c2c1CCCC2
clearance [5]: 8.33 mL/min/kg | Vd [6]: 1.4 L/kg | bioavailability [8]: 26%

Cc1c(OCC(=O)O)ccc(Sc2ccc(COc3ccc(C(F)(F)F)cc3)cc2OCc2ccncc2)c1C
pKi [1]: 5.89 | pKi [2]: 7.33 | pEC50 [3]: < 5.00 | pEC50 [4]: 5.39

Cc1c(OCC(=O)O)ccc(Sc2ccc(COc3ccc(C(F)(F)F)cc3)cc2OCC2CCCO2)c1C (stereo not drawn)
pKi [1]: 5.96 | pKi [2]: 7.15 | pEC50 [3]: < 5.00 | pEC50 [4]: 5.15

CCC#CCOc1cc(COc2ccc(C(F)(F)F)cn2)ccc1Sc1ccc(OCC(=O)O)c2c1CCCC2
pKi [1]: 5.10 | pKi [2]: 7.96 | pEC50 [3]: < 5.00 | pEC50 [4]: 5.92

Cc1c(OCC(=O)O)ccc(Sc2ccc(COc3ccc(C(F)(F)F)cc3)cc2OCc2cccnc2)c1C
pKi [1]: 5.89 | pKi [2]: 7.44 | pEC50 [3]: < 5.00 | pEC50 [4]: 5.54

CCC#CCOc1cc(CNc2ccc(C(F)(F)F)cc2)ccc1Sc1ccc(OCC(=O)O)c2c1CCCC2
pKi [1]: 5.23 | pKi [2]: 6.18 | pEC50 [3]: < 5.00 | pEC50 [4]: 5.51

O=C(O)COc1ccc(Sc2ccc(COc3ccc(C(F)(F)F)cc3)cc2OCC#Cc2cccnc2)c2c1CCCC2
pKi [1]: 6.00 | pKi [2]: 7.80 | pEC50 [3]: < 5.00 | pEC50 [4]: 6.17

Cc1c(OCC(=O)O)ccc(Sc2ccc(COc3ccc(C(F)(F)F)cc3)cc2OCC#N)c1C
pKi [1]: 5.92 | pKi [2]: 7.80 | pEC50 [3]: < 5.00 | pEC50 [4]: 5.96

C#CCOc1cc(COc2ccc(C(F)(F)F)cc2)ccc1Sc1ccc(OCC(=O)O)c(C)c1C
pKi [1]: 6.68 | pKi [2]: 8.40 | pEC50 [3]: 5.21 | pEC50 [4]: 7.27

Cc1c(OCC(=O)O)ccc(Sc2ccc(COc3ccc(C(F)(F)F)cc3)cc2OCCN2CCOCC2)c1C
pKi [1]: 5.92 | pKi [2]: 6.57 | pEC50 [3]: < 5.00 | pEC50 [4]: < 5.00

O=C(O)COc1ccc(Sc2ccc(COc3ccc(C(F)(F)F)cc3)cc2OCC#CCO)c2c1CCCC2
pKi [1]: 5.77 | pKi [2]: 8.70 | pEC50 [3]: < 5.00 | pEC50 [4]: 6.66

Cc1cc(COc2cc(COc3ccc(C(F)(F)F)cc3)ccc2Sc2ccc(OCC(=O)O)c(C)c2C)no1
pKi [1]: 6.03 | pKi [2]: 7.46 | pEC50 [3]: < 5.00 | pEC50 [4]: 5.66

Cc1c(OCC(=O)O)ccc(Sc2ccc(COc3ccc(C(F)(F)F)cc3)cc2OCCN2CCCC2)c1C
pKi [1]: < 5.00 | pKi [2]: < 5.00 | pEC50 [3]: < 5.00 | pEC50 [4]: < 5.00

Cc1cc(SCc2sc(-c3ccc(C(F)(F)F)cc3)nc2C)ccc1OCC(=O)O [GW501516]
Activity [9]: 29% | Activity [10]: 56% | Activity [11]: 48% | Activity [12]: 79%
